Data published in patent US9169254B2, “Spiroimidazolone derivative” (Chugai Seiyaku Kabushiki Kaisha, priority 2009, dated 2015).

The compounds below were run against T1, human PTH1 receptor (Homo sapiens, UniProt Q03431) (assay: In vitro cAMP signal activity in HKRK-B7 cells (LLC-PK1 cells overexpressing the human PTH1 receptor)). Settings: HKRK-B7 cells; compound at 1×10^−3 M; cAMP produced as percentage of that produced by hPTH(1-34) at 100 nM.
T1 sequence (Q03431 27-593): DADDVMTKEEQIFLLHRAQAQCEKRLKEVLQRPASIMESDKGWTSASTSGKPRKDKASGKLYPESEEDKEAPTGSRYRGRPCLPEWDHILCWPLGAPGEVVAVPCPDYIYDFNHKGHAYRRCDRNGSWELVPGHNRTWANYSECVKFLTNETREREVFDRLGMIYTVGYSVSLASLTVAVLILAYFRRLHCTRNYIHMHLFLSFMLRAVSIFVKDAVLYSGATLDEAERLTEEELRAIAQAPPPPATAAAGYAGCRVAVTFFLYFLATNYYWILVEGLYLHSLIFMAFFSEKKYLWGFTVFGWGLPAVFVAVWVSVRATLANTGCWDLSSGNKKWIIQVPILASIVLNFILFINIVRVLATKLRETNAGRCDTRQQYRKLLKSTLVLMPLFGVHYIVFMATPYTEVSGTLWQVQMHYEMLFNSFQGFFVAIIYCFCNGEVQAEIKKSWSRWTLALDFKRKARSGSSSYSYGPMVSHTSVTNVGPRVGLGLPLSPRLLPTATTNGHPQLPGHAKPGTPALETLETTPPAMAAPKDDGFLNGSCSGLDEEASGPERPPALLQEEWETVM
Type: cell-based

| SMILES | cAMP production activity (%) |
| --- | --- |
| COC(=O)CNc1ccc(/C=C/S(=O)(=O)N2CCC3(CC2)N=C(C2CCCCC2)NC3=O)c(C(F)(F)F)c1 [Compound 493, {4-[(E)-2-(2-cyclohexyl-4-oxo-1,3,8-triaza-spiro[4.5]dec-1-ene-8-sulfonyl)-vinyl]-3-trifluoromethyl-phenylamino}-acetic acid methyl ester] | 50% |
| COC(=O)CCC(=O)N1CCN(C(=O)c2cc(C)c(/C=C/S(=O)(=O)N3CCC4(CC3)N=C(c3cccc(OC(F)(F)F)c3)NC4=O)c(C)c2)CC1 [Compound 448, 4-[4-(3,5-dimethyl-4-{(E)-2-[4-oxo-2-(3-trifluoromethoxy-phenyl)-1,3,8-triaza-spiro[4.5]dec-1-ene-8-sulfonyl]-vinyl}-benzoyl)-piperazin-1-yl]-4-oxo-butyric acid methyl ester] | 64% |
| Cc1cc(/C=C/S(=O)(=O)N2CCC3(CC2)N=C(c2cccc(OC(F)(F)F)c2)NC3=O)cc(C)c1OCCC(O)CO (centres unmarked) [Compound 601, 8-{(E)-2-[4-(3,4-dihydroxy-butoxy)-3,5-dimethyl-phenyl]-ethenesulfonyl}-2-(3-trifluoromethoxy-phenyl)-1,3,8-triaza-spiro[4.5]dec-1-en-4-one] | 64% |
| Cc1cc(N2CCOCC2=O)cc(C)c1/C=C/S(=O)(=O)N1CCC2(CC1)N=C(C1CCC(C)CC1)NC2=O (centres unmarked) [Compound 515, 8-{(E)-2-[2,6-dimethyl-4-(3-oxo-morpholin-4-yl)-phenyl]-ethenesulfonyl}-2-(4-methyl-cyclohexyl)-1,3,8-triaza-spiro[4.5]dec-1-en-4-one] | 113% |
| Cc1cc(C(=O)N(C)C)ccc1CCS(=O)(=O)N1CCC2(CC1)N=C(N(C)c1ccc(C(F)(F)F)cc1)NC2=O [Compound 1400, 3,N,N-trimethyl-4-(2-{2-[methyl-(4-trifluoromethyl-phenyl)-amino]-4-oxo-1,3,8-triaza-spiro[4.5]dec-1-ene-8-sulfonyl}-ethyl)-benzamide] | 49% |
| O=C(Cc1cnc[nH]1)N1CCCC(C2=NC3(CCN(S(=O)(=O)CCc4cccc5ccccc45)CC3)C(=O)N2)C1 (centres unmarked) [Compound 432, 2-[1-(2-3H-imidazol-4-yl-acetyl)-piperidin-3-yl]-8-(2-naphthalen-1-yl-ethanesulfonyl)-1,3,8-triaza-spiro[4.5]dec-1-en-4-one] | 5.1% |
| COc1cccc(OC)c1C1=NC2(CCN(S(=O)(=O)CCc3ccc(C(=O)N(C)C)cc3C)CC2)C(=O)N1 [Compound 79, 4-{2-[2-(2,6-dimethoxy-phenyl)-4-oxo-1,3,8-triaza-spiro[4.5]dec-1-ene-8-sulfonyl]-ethyl}-3,N,N-trimethyl-benzamide] | 8.2% |
| Cc1cc(C(=O)N2CCC(C)(O)CC2)cc(C)c1/C=C/S(=O)(=O)N1CCC2(CC1)N=C(c1cc(OCC(F)(F)C(F)F)cc(C(F)(F)F)c1)NC2=O [Compound 1226, 8-{(E)-2-[4-(4-hydroxy-4-methyl-piperidine-1-carbonyl)-2,6-dimethyl-phenyl]-ethenesulfonyl}-2-[3-(2,2,3,3-tetrafluoro-propoxy)-5-trifluoromethyl-phenyl]-1,3,8-triaza-spiro[4.5]dec-1-en-4-one] | 51% |
| Cc1cc(CCS(=O)(=O)N2CCC3(CC2)N=C(c2cccc(OC(F)(F)F)c2)NC3=O)cc(C)c1OCCC(O)CO (centres unmarked) [Compound 855, 8-{2-[4-(3,4-dihydroxy-butoxy)-3,5-dimethyl-phenyl]-ethanesulfonyl}-2-(3-trifluoromethoxy-phenyl)-1,3,8-triaza-spiro[4.5]dec-1-en-4-one] | 82% |
| CC(=O)Nc1ccc(CCS(=O)(=O)N2CCC3(CC2)N=C(C2CC(C)(C)CC(C)(C)C2)NC3=O)c(C)c1 [Compound 926, N-(3-methyl-4-{2-[4-oxo-2-(3,3,5,5-tetramethyl-cyclohexyl)-1,3,8-triaza-spiro[4.5]dec-1-ene-8-sulfonyl]-ethyl}-phenyl)-acetamide] | 102% |
| Cc1cc(C(=O)N2CCC(C)(O)CC2)cc(C)c1/C=C/S(=O)(=O)N1CCC2(CC1)N=C(c1ccc(C(F)(F)F)c(Cl)c1)NC2=O [Compound 1188, 2-(3-chloro-4-trifluoromethyl-phenyl)-8-{(E)-2-[4-(4-hydroxy-4-methyl-piperidine-1-carbonyl)-2,6-dimethyl-phenyl]-ethenesulfonyl}-1,3,8-triaza-spiro[4.5]dec-1-en-4-one] | 99% |
| Cc1cc(C(=O)N(C)C)ccc1CCS(=O)(=O)N1CCC2(CC1)N=C(C1CCC(C(C)(C)C)CC1)NC2=O (centres unmarked) [Compound 895, 4-{2-[2-(4-tert-butyl-cyclohexyl)-4-oxo-1,3,8-triaza-spiro[4.5]dec-1-ene-8-sulfonyl]-ethyl}-3,N,N-trimethyl-benzamide] | 90% |
| COc1ccc(C2=NC3(CCN(S(=O)(=O)/C=C/c4c(C)cc(C(=O)N5CCC(C)(O)CC5)cc4C)CC3)C(=O)N2)cc1C [Compound 1238, 8-{(E)-2-[4-(4-hydroxy-4-methyl-piperidine-1-carbonyl)-2,6-dimethyl-phenyl]-ethenesulfonyl}-2-(4-methoxy-3-methyl-phenyl)-1,3,8-triaza-spiro[4.5]dec-1-en-4-one] | 73% |
| Cc1cc(C(=O)N2CCC(O)CC2)cc(C)c1/C=C/[S@TB4](=O)(=O)N1CCC2(CC1)N=C(c1ccc3c(c1)OC(F)(F)O3)NC2=O [Compound 1160, 2-(2,2-difluoro-benzo[1,3]dioxol-5-yl)-8-{(E)-2-[4-(4-hydroxy-piperidine-1-carbonyl)-2,6-dimethyl-phenyl]-ethenesulfonyl}-1,3,8-triaza-spiro[4.5]dec-1-en-4-one] | 84% |
| O=C1NC(C2CCCCC2)=NC12CCN(S(=O)(=O)CCc1cc3cc[nH]c3cc1C(F)(F)F)CC2 [Compound 836, 2-cyclohexyl-8-[2-(6-trifluoromethyl-1H-indol-5-yl)-ethanesulfonyl]-1,3,8-triaza-spiro[4.5]dec-1-en-4-one] | 56% |
| Cc1cc(N2CCOCC2=O)cc(C)c1CCS(=O)(=O)N1CCC2(CC1)N=C(C1CCC(C)CC1)NC2=O (centres unmarked) [Compound 765, 8-{2-[2,6-dimethyl-4-(3-oxo-morpholin-4-yl)-phenyl]-ethanesulfonyl}-2-(4-methyl-cyclohexyl)-1,3,8-triaza-spiro[4.5]dec-1-en-4-one] | 101% |
| Cc1cc(N(C)C(N)=O)cc(C)c1CCS(=O)(=O)N1CCC2(CC1)N=C(C1C[C@H]3CC[C@@H](C1)C3)NC2=O (stereo partly drawn) [Compound 1054, 1-{4-[2-((1R,5S)-2-bicyclo[3.2.1]oct-3-yl-4-oxo-1,3,8-triaza-spiro[4.5]dec-1-ene-8-sulfonyl)-ethyl]-3,5-dimethyl-phenyl}-1-methyl-urea] | 80% |
| CCCCCC[C@@H]1CCC[C@H](C2=NC3(CCN(S(=O)(=O)CCc4c(C)cc(N(C)C(N)=O)cc4C)CC3)C(=O)N2)C1 [Compound 1143, 1-(4-{2-[2-((1S,3R)-3-Hexyl-cyclohexyl)-4-oxo-1,3,8-triaza-spiro[4.5]dec-1-ene-8-sulfonyl]-ethyl}-3,5-dimethyl-phenyl)-1-methyl-urea] | 78% |
| Cc1cc(N2C(=O)CNC2=O)cc(C)c1/C=C/S(=O)(=O)N1CCC2(CC1)N=C(C1CCC(C(C)C)CC1)NC2=O (centres unmarked) [Compound 564, 3-(4-{(E)-2-[2-(4-isopropyl-cyclohexyl)-4-oxo-1,3,8-triaza-spiro[4.5]dec-1-ene-8-sulfonyl]-vinyl}-3,5-dimethyl-phenyl)-imidazolidine-2,4-dione] | 68% |
| Cc1cc(C(=O)N(C)C)ccc1CCS(=O)(=O)N1CCC2(CC1)N=C(c1ccc(Cl)cc1Cl)NC2=O [Compound 73, 4-{2-[2-(2,4-Dichloro-phenyl)-4-oxo-1,3,8-triaza-spiro[4.5]dec-1-ene-8-sulfonyl]-ethyl}-3,N,N-trimethyl-benzamide] | 66% |
| Cc1cc(C(=O)N2CC(C)(O)C2)cc(C)c1/C=C/S(=O)(=O)N1CCC2(CC1)N=C(c1ccc(F)c(C(F)(F)F)c1)NC2=O [Compound 970, 2-(4-fluoro-3-trifluoromethyl-phenyl)-8-{(E)-2-[4-(3-hydroxy-3-methyl-azetidine-1-carbonyl)-2,6-dimethyl-phenyl]-ethenesulfonyl}-1,3,8-triaza-spiro[4.5]dec-1-en-4-one] | 112% |
| Cc1cc(C(=O)N2CCC(O)CC2)cc(C)c1/C=C/S(=O)(=O)N1CCC2(CC1)N=C(c1cccc(OCCCC(F)(F)C(F)(F)F)c1)NC2=O [Compound 1158, 8-{(E)-2-[4-(4-Hydroxy-piperidine-1-carbonyl)-2,6-dimethyl-phenyl]-ethenesulfonyl}-2-[3-(4,4,5,5,5-pentafluoro-pentyloxy)-phenyl]-1,3,8-triaza-spiro[4.5]dec-1-en-4-one] | 103% |
| CC(=O)N(CCO)c1cccc(CCS(=O)(=O)N2CCC3(CC2)N=C(c2cccc(OC(F)(F)F)c2)NC3=O)c1C [Compound 327, N-(2-Hydroxy-ethyl)-N-(2-methyl-3-{2-[4-oxo-2-(3-trifluoromethoxy-phenyl)-1,3,8-triaza-spiro[4.5]dec-1-ene-8-sulfonyl]-ethyl}-phenyl)-acetamide] | 84% |
